Data as given in publication PMC9942557, “Bolaamphiphile Analogues of 12-bis-THA Cl2 Are Potent Antimicrobial Therapeutics with Distinct Mechanisms of Action against Bacterial, Mycobacterial, and Fungal Pathogens” (mSphere, 2022).

What was measured:
P. aeruginosa PAO1 = assay: Fixed-concentration (0.25× MIC bolalipid) synergy broth microdilution; type: cell-based, Pseudomonas aeruginosa; conditions: P. aeruginosa PAO1
P. aeruginosa NCTC 13437 = assay: as above; type: cell-based, Pseudomonas aeruginosa; conditions: P. aeruginosa NCTC 13437
[1] = in the presence of 0.25× MIC Octa-bola (Table S1)
[2] = in the presence of 0.25× MIC Octa-C10 (Table S1)

| MIC of antibiotic (P. aeruginosa PAO1; No bola (Table S1)) [µg/mL] | MIC of antibiotic (P. aeruginosa PAO1; [1]) [µg/mL] | MIC of antibiotic (P. aeruginosa NCTC 13437; No bola (Table S1)) [µg/mL] | MIC of antibiotic (P. aeruginosa NCTC 13437; [2]) [µg/mL] | MIC of antibiotic (P. aeruginosa NCTC 13437; [1]) [µg/mL] | MIC of antibiotic (P. aeruginosa PAO1; [2]) [µg/mL] | Structure (SMILES) |
| --- | --- | --- | --- | --- | --- | --- |
| > 512 | > 512 | > 512 | > 512 | > 512 |  | CC1(C)S[C@@H]2[C@H](NC(=O)[C@H](N)c3ccccc3)C(=O)N2[C@H]1C(=O)O [Ampicillin] |
| 2 | 2 | > 128 | > 128 | > 128 |  | CC(C)(O/N=C(\C(=O)N[C@@H]1C(=O)N2C(C(=O)[O-])=C(C[n+]3ccccc3)CS[C@H]12)c1csc(N)n1)C(=O)O [Ceftazidime] |
| 0.125 | 1 | 32 | > 64 | > 64 | 1 | O=C(O)c1cn(C2CC2)c2cc(N3CCNCC3)c(F)cc2c1=O [Ciprofloxacin] |
| 32 | 128 | > 256 | > 256 | > 256 | 64 | C[C@H]1c2cccc(O)c2C(=O)C2=C(O)[C@]3(O)C(=O)C(C(N)=O)=C(O)[C@@H](N(C)C)[C@@H]3[C@@H](O)[C@@H]21 [Doxycyline] |
